# According to patent US7989649B2, “Tumor imaging compounds” (Emory University, priority 2002, dated 2011):
# How the values were obtained:
# [1] = system: human melanoma transplants; conditions: cited from earlier work
# [2] = normal Fischer rats, 60 minutes; cited from earlier work
# [3] = cited from earlier work
# 9 L gliosarcoma tumor = conditions: same rodent tumor model, 60 minutes; cited from earlier work
# [4] = nude Swiss mice bearing human melanoma transplants, 60 minutes
# [5] = healthy Copenhagen rats, 60 minutes
compound,measurement,setting,value
CC(C)(N)C(=O)O [[^14C]AIB],"mean RC, brain",[1]; [4],0.23
same,"mean RC, kidneys",[1]; [4],3.4
same,"mean RC, pancreas",[1]; [4],8.6
"N[C@]1(C(=O)O)C[C@@H](F)C1 [trans-[^18F]FACBC, trans-1-amino-3-[^18F]fluorocyclobutyl-1-carboxylic acid]",pancreatic uptake,[2],3.4 % ID/g
"CC(C)(N)C(=O)O [AIB, α-aminoisobutyric acid]",mean RC in pancreas and kidneys,"[3]; rats, within 5-15 minutes post-injection",greater than 1.8
same,mean RC in pancreas and kidneys,"[1]; mice, within 5-15 minutes post-injection",greater than 1.8
"OC[C@H]1OC(O)[C@H]([18F])[C@@H](O)[C@@H]1O (stereo partly drawn) [[^18F]FDG, 2-[^18F]fluorodeoxyglucose]",uptake in normal brain,9 L gliosarcoma tumor,1.30 % ID/g
same,uptake in tumor tissue,9 L gliosarcoma tumor,1.05 % ID/g
"CN1C(C)(C(=O)OC(C)(C)C)COS1(=O)=O (stereo not drawn) [Compound 14b, 3,4-dimethyl-1,2,3-oxathiazolidine-4-carboxylic acid tert-butyl ester 2,2-dioxide]",melting point,,54 to 55 °C
"CC([11CH3])(N)C(=O)O (stereo not drawn) [[^11C]AIB, [^11C]α-aminoisobutyric acid]","mean relative concentration (mean RC), brain",[3]; [5],0.2
same,"mean relative concentration (mean RC), kidneys",[3]; [5],10.3
same,"mean relative concentration (mean RC), pancreas",[3]; [5],6.0
